Test results published in PubChem BioAssay (NCI).
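Values below derive from 48-hour exposures of cells grown in 96-well plates, with endpoints linearly interpolated between the two concentrations bracketing the appropriate inhibition level. GI50 marks 50% less growth. Definition used: TGI = concentration required for complete inhibition of growth.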

Key:
Assay in all cases: NCI tumour cell line growth inhibition, 48 h
K-562 leukemia = tested on: K-562 leukemia
SF-539 CNS = tested on: SF-539 CNS
SK-OV-3 ovarian = tested on: SK-OV-3 ovarian
MALME-3M melanoma = tested on: MALME-3M melanoma
T-47D breast = tested on: T-47D breast
NCI/ADR-RES ovarian = tested on: NCI/ADR-RES ovarian
HL-60(TB) leukemia = tested on: HL-60(TB) leukemia
M14 melanoma = tested on: M14 melanoma
U251 CNS = tested on: U251 CNS
NCI-H23 lung = tested on: NCI-H23 lung
RXF 393 renal = tested on: RXF 393 renal
CAKI-1 renal = tested on: CAKI-1 renal
SF-268 CNS = tested on: SF-268 CNS
MDA-MB-231 breast = tested on: MDA-MB-231 breast
DU-145 prostate = tested on: DU-145 prostate
HCT-116 colon = tested on: HCT-116 colon
BT-549 breast = tested on: BT-549 breast
PC-3 prostate = tested on: PC-3 prostate
SW-620 colon = tested on: SW-620 colon
HOP-92 NSCLC = tested on: HOP-92 NSCLC
A549 NSCLC = tested on: A549 NSCLC
HCT-15 colon = tested on: HCT-15 colon
786-0 renal = tested on: 786-0 renal
A498 renal = tested on: A498 renal
HS 578T breast = tested on: HS 578T breast
SK-MEL-2 melanoma = tested on: SK-MEL-2 melanoma
UACC-62 melanoma = tested on: UACC-62 melanoma
SK-MEL-28 melanoma = tested on: SK-MEL-28 melanoma

Work on `CC(C)=CCNc1ncnc2c1ncn2C1OC(COP(=O)(O)O)C(O)C1O` (stereo unspecified) yielded a GI50 (K-562 leukemia) of 4.22 µM, a TGI (K-562 leukemia) greater than 100 µM and a GI50 (SF-539 CNS) of 4 µM. It also gave a TGI (SF-539 CNS) of 38.9 µM, a GI50 (SK-OV-3 ovarian) of 4.77 µM and a TGI (SK-OV-3 ovarian) greater than 100 µM. For the same molecule, the GI50 (MALME-3M melanoma) was 73.8 µM, the TGI (MALME-3M melanoma) was greater than 100 µM and the GI50 (T-47D breast) was 4.96 µM. For the same molecule, the TGI (T-47D breast) was 25.4 µM, the GI50 (NCI/ADR-RES ovarian) was 5.85 µM and the TGI (NCI/ADR-RES ovarian) was greater than 100 µM. The GI50 (HL-60(TB) leukemia) was 1.94 µM, the TGI (HL-60(TB) leukemia) was 6.33 µM and the GI50 (M14 melanoma) was 10.4 µM. For the same molecule, the TGI (M14 melanoma) was greater than 100 µM, the GI50 (U251 CNS) was greater than 100 µM and the TGI (U251 CNS) was greater than 100 µM. For the same molecule, the GI50 (NCI-H23 lung) was 6.68 µM, the TGI (NCI-H23 lung) was greater than 100 µM and the GI50 (RXF 393 renal) was 2.38 µM. It also gave a TGI (RXF 393 renal) of 8.98 µM, a GI50 (CAKI-1 renal) of 3.6 µM and a TGI (CAKI-1 renal) greater than 67.7 µM. For the same molecule, the GI50 (SF-268 CNS) was 8.77 µM, the TGI (SF-268 CNS) was greater than 100 µM and the GI50 (MDA-MB-231 breast) was 1.85 µM. The TGI (MDA-MB-231 breast) was 5.48 µM, the GI50 (DU-145 prostate) was 1.35 µM and the TGI (DU-145 prostate) was 4.15 µM. It also gave a GI50 (HCT-116 colon) of 2.07 µM, a TGI (HCT-116 colon) of 25.5 µM and a GI50 (BT-549 breast) of 2.43 µM. The TGI (BT-549 breast) was 6.81 µM, the GI50 (PC-3 prostate) was 2 µM and the TGI (PC-3 prostate) was 8.22 µM. For the same molecule, the GI50 (SW-620 colon) was 3.89 µM, the TGI (SW-620 colon) was greater than 100 µM and the GI50 (HOP-92 NSCLC) was 1.63 µM. The TGI (HOP-92 NSCLC) was 5.1 µM, the GI50 (A549 NSCLC) was 7.39 µM and the TGI (A549 NSCLC) was greater than 100 µM. It also gave a GI50 (HCT-15 colon) of 2.72 µM, a TGI (HCT-15 colon) greater than 64.1 µM and a GI50 (786-0 renal) of 5.82 µM. It also gave a TGI (786-0 renal) greater than 79.6 µM, a GI50 (A498 renal) of 1.53 µM and a TGI (A498 renal) of 3.3 µM. The GI50 (HS 578T breast) was 2.67 µM, the TGI (HS 578T breast) was 21.8 µM and the GI50 (SK-MEL-2 melanoma) was 16.3 µM. The TGI (SK-MEL-2 melanoma) was 99.8 µM, the GI50 (UACC-62 melanoma) was 9.03 µM and the TGI (UACC-62 melanoma) was greater than 100 µM. The GI50 (SK-MEL-28 melanoma) was greater than 100 µM and the TGI (SK-MEL-28 melanoma) was greater than 100 µM.
